# Tests used:
# Assay in all cases: BIO3-BIO1 mutant enzyme activity in the presence of herbicide, percentage inhibition (fluorometric DAPA assay)
# Assay type in all cases: biochemical
# Conditions in all cases: read-out: percentage inhibition
# [1] = biological target: T1, Arabidopsis thaliana BIO3-BIO1 (BioDA) mutants (Arabidopsis thaliana, UniProt B0F481, A609N)
# T1 construct: with the predicted N-terminal mitochondrial transit peptide removed; 6xHis-tag (N); thrombin cleavage site (N); made in house; host or cells: E. coli BL21 (DE3) bioA
# T1 sequence (B0F481 23-833 A609N): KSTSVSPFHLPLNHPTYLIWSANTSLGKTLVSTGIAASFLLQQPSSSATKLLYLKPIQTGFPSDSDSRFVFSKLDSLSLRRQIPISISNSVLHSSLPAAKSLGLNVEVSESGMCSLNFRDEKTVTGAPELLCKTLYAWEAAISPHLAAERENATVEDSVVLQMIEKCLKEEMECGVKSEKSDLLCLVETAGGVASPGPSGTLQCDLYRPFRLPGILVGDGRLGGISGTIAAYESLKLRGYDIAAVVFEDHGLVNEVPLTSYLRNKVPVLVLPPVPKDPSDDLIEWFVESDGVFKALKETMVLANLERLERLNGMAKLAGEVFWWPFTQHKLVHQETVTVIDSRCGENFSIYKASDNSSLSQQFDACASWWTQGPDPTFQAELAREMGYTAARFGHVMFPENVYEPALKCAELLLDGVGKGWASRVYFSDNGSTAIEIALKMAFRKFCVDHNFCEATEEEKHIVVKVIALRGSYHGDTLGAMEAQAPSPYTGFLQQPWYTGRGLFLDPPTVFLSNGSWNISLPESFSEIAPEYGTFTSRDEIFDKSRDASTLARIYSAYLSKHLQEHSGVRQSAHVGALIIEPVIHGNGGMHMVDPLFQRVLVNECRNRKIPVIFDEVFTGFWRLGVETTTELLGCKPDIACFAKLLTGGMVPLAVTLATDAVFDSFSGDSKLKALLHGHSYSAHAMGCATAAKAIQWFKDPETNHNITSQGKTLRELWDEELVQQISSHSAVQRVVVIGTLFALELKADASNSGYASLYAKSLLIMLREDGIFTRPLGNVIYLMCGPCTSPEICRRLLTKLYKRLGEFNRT
# Method in brief: (§1)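 Percentage inhibition compares activity at one of three herbicide concentrations against DMSO, from o-phthalaldehyde-derivatised DAPA fluorescence (ex 410, em 470 nm). Purified N-His BIO3-BIO1 variants (50 nM, E. coli-expressed) saw herbicide 10 min at 20 °C in pH 8.6 EPPS buffer, then 20 μM KAPA plus 100 μM spermidine for 75 min at 20 °C.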
# [2] = biological target: T2, Arabidopsis thaliana BIO3-BIO1 (BioDA) mutants (Arabidopsis thaliana, UniProt B0F481, A609T)
# T2 construct: with the predicted N-terminal mitochondrial transit peptide removed; 6xHis-tag (N); thrombin cleavage site (N); made in house; host or cells: E. coli BL21 (DE3) bioA
# T2 sequence (B0F481 23-833 A609T): as the sequence (B0F481 23-833 A609N) above, with N587T counted along it
# Method in brief: as §1
# [3] = biological target: T3, Arabidopsis thaliana BIO3-BIO1 (BioDA) mutants (Arabidopsis thaliana, UniProt B0F481, A609V)
# T3 construct: with the predicted N-terminal mitochondrial transit peptide removed; 6xHis-tag (N); thrombin cleavage site (N); made in house; host or cells: E. coli BL21 (DE3) bioA
# T3 sequence (B0F481 23-833 A609V): as the sequence (B0F481 23-833 A609N) above, with N587V counted along it
# Method in brief: as §1
# [4] = biological target: T4, Arabidopsis thaliana BIO3-BIO1 (BioDA) mutants (Arabidopsis thaliana, UniProt B0F481, C388D)
# T4 construct: with the predicted N-terminal mitochondrial transit peptide removed; 6xHis-tag (N); thrombin cleavage site (N); made in house; host or cells: E. coli BL21 (DE3) bioA
# T4 sequence (B0F481 23-833 C388D): as the sequence (B0F481 23-833 A609N) above, with C366D, N587A counted along it
# Method in brief: as §1
# [5] = biological target: T5, Arabidopsis thaliana BIO3-BIO1 (BioDA) mutants (Arabidopsis thaliana, UniProt B0F481, F348C)
# T5 construct: with the predicted N-terminal mitochondrial transit peptide removed; 6xHis-tag (N); thrombin cleavage site (N); made in house; host or cells: E. coli BL21 (DE3) bioA
# T5 sequence (B0F481 23-833 F348C): as the sequence (B0F481 23-833 A609N) above, with F326C, N587A counted along it
# Method in brief: as §1
# [6] = biological target: T6, Arabidopsis thaliana BIO3-BIO1 (BioDA) mutants (Arabidopsis thaliana, UniProt B0F481, F420I)
# T6 construct: with the predicted N-terminal mitochondrial transit peptide removed; 6xHis-tag (N); thrombin cleavage site (N); made in house; host or cells: E. coli BL21 (DE3) bioA
# T6 sequence (B0F481 23-833 F420I): as the sequence (B0F481 23-833 A609N) above, with F398I, N587A counted along it
# Method in brief: as §1
# [7] = biological target: T7, Arabidopsis thaliana BIO3-BIO1 (BioDA) mutants (Arabidopsis thaliana, UniProt B0F481, G608A)
# T7 construct: with the predicted N-terminal mitochondrial transit peptide removed; 6xHis-tag (N); thrombin cleavage site (N); made in house; host or cells: E. coli BL21 (DE3) bioA
# T7 sequence (B0F481 23-833 G608A): as the sequence (B0F481 23-833 A609N) above, with G586A, N587A counted along it
# Method in brief: as §1
# [8] = biological target: T8, Arabidopsis thaliana BIO3-BIO1 (BioDA) mutants (Arabidopsis thaliana, UniProt B0F481, S509C)
# T8 construct: with the predicted N-terminal mitochondrial transit peptide removed; 6xHis-tag (N); thrombin cleavage site (N); made in house; host or cells: E. coli BL21 (DE3) bioA
# T8 sequence (B0F481 23-833 S509C): as the sequence (B0F481 23-833 A609N) above, with S487C, N587A counted along it
# Method in brief: as §1
# [9] = biological target: T9, Arabidopsis thaliana BIO3-BIO1 (BioDA) mutants (Arabidopsis thaliana, UniProt B0F481, V354T)
# T9 construct: with the predicted N-terminal mitochondrial transit peptide removed; 6xHis-tag (N); thrombin cleavage site (N); made in house; host or cells: E. coli BL21 (DE3) bioA
# T9 sequence (B0F481 23-833 V354T): as the sequence (B0F481 23-833 A609N) above, with V332T, N587A counted along it
# Method in brief: as §1
# [10] = biological target: T10, Arabidopsis thaliana BIO3-BIO1 (BioDA) mutants (Arabidopsis thaliana, UniProt B0F481, W392D)
# T10 construct: with the predicted N-terminal mitochondrial transit peptide removed; 6xHis-tag (N); thrombin cleavage site (N); made in house; host or cells: E. coli BL21 (DE3) bioA
# T10 sequence (B0F481 23-833 W392D): as the sequence (B0F481 23-833 A609N) above, with W370D, N587A counted along it
# Method in brief: as §1
# [11] = biological target: T11, Arabidopsis thaliana BIO3-BIO1 (BioDA) mutants (Arabidopsis thaliana, UniProt B0F481, W392G)
# T11 construct: with the predicted N-terminal mitochondrial transit peptide removed; 6xHis-tag (N); thrombin cleavage site (N); made in house; host or cells: E. coli BL21 (DE3) bioA
# T11 sequence (B0F481 23-833 W392G): as the sequence (B0F481 23-833 A609N) above, with W370G, N587A counted along it
# Method in brief: as §1
# [12] = biological target: T12, Arabidopsis thaliana BIO3-BIO1 (BioDA) mutants (Arabidopsis thaliana, UniProt B0F481, W392M)
# T12 construct: with the predicted N-terminal mitochondrial transit peptide removed; 6xHis-tag (N); thrombin cleavage site (N); made in house; host or cells: E. coli BL21 (DE3) bioA
# T12 sequence (B0F481 23-833 W392M): as the sequence (B0F481 23-833 A609N) above, with W370M, N587A counted along it
# Method in brief: as §1
compound,measurement,setting,value
"CCOC(=O)c1nn(-c2ccc3c(c2)OC(F)(F)C(F)(F)O3)c2cccc(C(C)=O)c2c1=O [Compound A, ethyl 5-acetyl-4-oxo-1-(2,2,3,3-tetrafluoro-1,4-benzodioxin-6-yl)cinnoline-3-carboxylate]",inhibition at 1 µM,[1],78%
same,inhibition at 1 µM,[2],0%
same,inhibition at 1 µM,[3],5%
same,inhibition at 1 µM,[4],14%
same,inhibition at 1 µM,[5],0%
same,inhibition at 1 µM,[6],0%
same,inhibition at 1 µM,[7],10%
same,inhibition at 1 µM,[8],0%
same,inhibition at 1 µM,[9],61%
same,inhibition at 1 µM,[10],55%
same,inhibition at 1 µM,[11],56%
same,inhibition at 1 µM,[12],14%
"CCn1c(-c2ccc(Cl)c(Cl)c2)c(C(=O)O)c(=O)c2cc(F)ccc21 [Compound M, 2-(3,4-dichlorophenyl)-1-ethyl-6-fluoro-4-oxo-quinoline-3-carboxylic acid]",inhibition at 0.2 µM,[1],44%
same,inhibition at 1 µM,[1],49%
same,inhibition at 5 µM,[1],62%
same,inhibition at 0.2 µM,[2],8%
same,inhibition at 1 µM,[2],39%
same,inhibition at 5 µM,[2],67%
same,inhibition at 0.2 µM,[3],22%
same,inhibition at 1 µM,[3],44%
same,inhibition at 5 µM,[3],75%
same,inhibition at 0.2 µM,[4],0%
same,inhibition at 1 µM,[4],0%
same,inhibition at 5 µM,[4],0%
same,inhibition at 0.2 µM,[5],14%
same,inhibition at 1 µM,[5],3%
same,inhibition at 5 µM,[5],0%
same,inhibition at 0.2 µM,[6],0%
same,inhibition at 1 µM,[6],45%
same,inhibition at 5 µM,[6],84%
same,inhibition at 0.2 µM,[7],12%
same,inhibition at 1 µM,[7],38%
same,inhibition at 5 µM,[7],74%
same,inhibition at 0.2 µM,[8],21%
same,inhibition at 1 µM,[8],53%
same,inhibition at 5 µM,[8],78%
same,inhibition at 0.2 µM,[9],4%
same,inhibition at 1 µM,[9],47%
same,inhibition at 5 µM,[9],88%
same,inhibition at 0.2 µM,[10],14%
same,inhibition at 1 µM,[10],37%
same,inhibition at 5 µM,[10],81%
same,inhibition at 0.2 µM,[11],0%
same,inhibition at 1 µM,[11],7%
same,inhibition at 5 µM,[11],12%
same,inhibition at 0.2 µM,[12],0%
same,inhibition at 1 µM,[12],0%
same,inhibition at 5 µM,[12],22%
"CCn1c(Cn2ccc(C(F)(F)F)n2)cc(=O)c(C(=O)O)c1-c1ccc(Cl)c(Cl)c1 [Compound L, 2-(3,4-dichlorophenyl)-1-ethyl-4-oxo-6-[[3-(trifluoromethyl)pyrazol-1-yl]methyl]pyridine-3-carboxylic acid]",inhibition at 0.01 µM,[1],83%
same,inhibition at 0.075 µM,[1],83%
same,inhibition at 0.5 µM,[1],85%
same,inhibition at 0.01 µM,[2],10%
same,inhibition at 0.075 µM,[2],34%
same,inhibition at 0.5 µM,[2],12%
same,inhibition at 0.01 µM,[3],0%
same,inhibition at 0.075 µM,[3],0%
same,inhibition at 0.5 µM,[3],0%
same,inhibition at 0.01 µM,[4],0%
same,inhibition at 0.075 µM,[4],0%
same,inhibition at 0.5 µM,[4],6%
same,inhibition at 0.01 µM,[5],0%
same,inhibition at 0.075 µM,[5],0%
same,inhibition at 0.5 µM,[5],29%
same,inhibition at 0.01 µM,[6],0%
same,inhibition at 0.075 µM,[6],1%
same,inhibition at 0.5 µM,[6],62%
same,inhibition at 0.01 µM,[7],6%
same,inhibition at 0.075 µM,[7],17%
same,inhibition at 0.5 µM,[7],68%
"CCn1c(C)c(-c2ccc(F)cc2F)c(=O)c(C(=O)O)c1-c1ccc(Cl)c(Cl)c1 [Compound C, 2-(3,4-dichlorophenyl)-5-(2,4-difluorophenyl)-1-ethyl-6-methyl-4-oxo-pyridine-3-carboxylic acid]",inhibition at 0.2 µM,[1],45%
same,inhibition at 1 µM,[1],36%
same,inhibition at 5 µM,[1],53%
same,inhibition at 0.2 µM,[2],12%
same,inhibition at 1 µM,[2],37%
same,inhibition at 5 µM,[2],64%
same,inhibition at 0.2 µM,[3],0%
same,inhibition at 1 µM,[3],11%
same,inhibition at 5 µM,[3],58%
same,inhibition at 0.2 µM,[4],5%
same,inhibition at 1 µM,[4],0%
same,inhibition at 5 µM,[4],9%
same,inhibition at 0.2 µM,[5],0%
same,inhibition at 1 µM,[5],0%
same,inhibition at 5 µM,[5],0%
same,inhibition at 0.2 µM,[6],0%
same,inhibition at 1 µM,[6],55%
same,inhibition at 5 µM,[6],88%
same,inhibition at 0.2 µM,[7],11%
same,inhibition at 1 µM,[7],42%
same,inhibition at 5 µM,[7],81%
same,inhibition at 0.2 µM,[8],30%
same,inhibition at 1 µM,[8],65%
same,inhibition at 5 µM,[8],88%
same,inhibition at 0.2 µM,[9],0%
same,inhibition at 1 µM,[9],56%
same,inhibition at 5 µM,[9],92%
same,inhibition at 0.2 µM,[10],46%
same,inhibition at 1 µM,[10],59%
same,inhibition at 5 µM,[10],91%
same,inhibition at 0.2 µM,[11],0%
same,inhibition at 1 µM,[11],20%
same,inhibition at 5 µM,[11],69%
same,inhibition at 0.2 µM,[12],10%
same,inhibition at 1 µM,[12],30%
same,inhibition at 5 µM,[12],56%
